Data from patent US20140148484A1, “PYRAZOLE COMPOUNDS FOR TREATING HAIRLOSS” (Boehringer Ingelheim International GmbH, priority 2012, published 2014).

target: T1, human CRTH2 receptor (Homo sapiens, UniProt Q9Y5Y4); experiment: Human CRTH2 receptor membrane radioligand binding assay (SPA, [3H]-PGD2); conditions: displacement of [3H]-PGD2 (1 nM) from CHO-K1-hCRTH2 cell membranes, 3 h room temperature
T1 construct: host or cells: CHO-K1 (CHO-K1-hCRTH2 cells); membranes prepared in house from the purchased cell line
T1 sequence (Q9Y5Y4 1-395): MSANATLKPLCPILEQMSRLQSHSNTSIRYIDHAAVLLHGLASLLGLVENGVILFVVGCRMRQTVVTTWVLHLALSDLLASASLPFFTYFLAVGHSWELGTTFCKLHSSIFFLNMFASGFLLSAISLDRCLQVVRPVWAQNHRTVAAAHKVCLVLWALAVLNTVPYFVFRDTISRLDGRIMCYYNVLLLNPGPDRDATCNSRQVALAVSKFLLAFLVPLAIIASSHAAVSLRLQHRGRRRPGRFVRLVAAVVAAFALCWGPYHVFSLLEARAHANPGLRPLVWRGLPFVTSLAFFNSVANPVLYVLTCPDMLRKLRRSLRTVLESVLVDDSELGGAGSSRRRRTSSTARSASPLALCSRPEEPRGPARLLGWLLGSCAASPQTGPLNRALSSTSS
Protocol: Preparation of Human CRTH2 Receptor Membranes and Radioligand Binding Assay
The binding of CRTH2 antagonists is determined using membranes prepared from Chinese hamster ovary cells (CHO-K1 cells) transfected with the human CRTH2 receptor (CHO-K1-hCRTH2 cells, Perkin Elmer, Cat No ES-561-C). To produce cell membranes the CHO-K1-hCRTH2 cells are cultured in suspension in CHO SFMII medium supplemented with 400 μg/ml G418. The cells are harvested by centrifugation at 300 g for 10 min at room temperature. The cell pellet is resuspended in Phosphate Buffer Saline (PBS) including a protease inhibitor mix (Complete, Roche) and adjusted to a concentration of 10E7 cells/ml. The CHO-K1-hCRTH2 cells are disrupted by nitrogen […] to obtain the membrane preparation. Cell debris is removed by centrifugation (500 g at 4° C., 30 min) and the supernatant is transferred into fresh tubes followed by a second centrifugation at 40000 g for 1 h at 4° C. to sediment the membranes. The membranes are suspended in SPA incubation buffer (50 mM Tris HCl, 10 mM MgCl2, 150 mM NaCl, 1 mM EDTA, pH 7.4) without bovine serum albumin, homogenized by passing through a single use needle (Terumo, 23G×1″), and stored in aliquots at −80° C.
The CRTH2 receptor binding assay is performed in a scintillation proximity assay (SPA) format with the radioligand [^3H]-PGD2 (Perkin Elmer, NET616000MC). CHO-K1-hCRTH2 cell membranes are again homogenized by passing through a single use needle (Terumo, 23G×1″) and diluted in SPA incubation buffer in suitable concentrations (0.5-10 μg protein/well). The SPA assay is set up in 96 well microtiter plates (Perkin Elmer, CatNo. 6005040) in SPA incubation buffer with a final volume of 200 μl per well and final concentration of 50 mM Tris-HCl, 10 mM MgCl2, 150 mM NaCl, 1 mM EDTA pH 7.4, 0.1% bovine serum albumin). The SPA assay mixture contains 60 μl of the membrane suspension, 80 μl of Wheat Germ Agglutinin coated PVT beads (GE Healthcare, RPNQ-0001, 0.3 mg/well), 40 μl of [3H]-PGD2 diluted in SPA buffer to a final concentration of 1 nM (50 000 dpm) and 20 μl of the test compound (dissolved in dimethylsulfoxid). The SPA assay mixture is incubated for 3 h at room temperature. Bound radioactivity is determined with a scintillation counter (Micro Beta Trilux, Wallac).
The binding of [^3H]-PGD2 to CHO-K1-hCRTH2 cell membranes is determined in the absence (total binding, Bo) and presence (non-specific binding, NSB) of unlabelled PGD2 (1 μM, Cayman Chemical, Cat No 12010) or a reference CRTH2 antagonist (10 μM CAY10471, Cayman Chemical, Cat No 10006735).
Determination of the affinity of a test compound is calculated by subtraction of the non-specific binding (NSB) from the total binding (Bo) or the binding in the presence of the test compound (B) at a given compound concentration. […] The Bo−NSB value is set to 0% inhibition.

Row | Ki [nM] | Structure (SMILES)
1 | 2.9 | Cc1nn(Cc2ccc(NC(=O)c3ccc(C(F)(F)F)cc3)cc2)c(C)c1CC(=O)O [Example 1.1]
2 | 16.3 | Cc1cc(Cl)ccc1C(=O)Nc1ccc(Cn2nc(C)c(CC(=O)O)c2C)cc1 [Example 1.2]
3 | 30.8 | Cc1nn(Cc2ccc(NC(=O)c3ccccc3)cc2)c(C)c1CC(=O)O [Example 1.3]
4 | 7.7 | Cc1ccc(C(=O)Nc2ccc(Cn3nc(C)c(CC(=O)O)c3C)cc2)cc1 [Example 1.4]
5 | 12.9 | COc1ccc(C(=O)Nc2ccc(Cn3nc(C)c(CC(=O)O)c3C)cc2)cc1 [Example 1.5]
6 | 3.5 | Cc1nn(Cc2ccc(NC(=O)c3ccc(Cl)cc3)cc2)c(C)c1CC(=O)O [Example 1.6]
7 | 2.5 | Cc1nn(Cc2ccc(NC(=O)c3ccc4ccccc4c3)cc2)c(C)c1CC(=O)O [Example 1.7]
8 | 2.6 | Cc1nn(Cc2ccc(NC(=O)c3ccc(Cl)c(Cl)c3)cc2)c(C)c1CC(=O)O [Example 1.8]
9 | 28.3 | Cc1nn(Cc2ccc(NC(=O)c3ccc4ccccc4n3)cc2)c(C)c1CC(=O)O [Example 1.9]
10 | 7.4 | Cc1nn(Cc2ccc(NC(=O)CCc3ccccc3)cc2)c(C)c1CC(=O)O [Example 1.10]
11 | 2.7 | Cc1cc(C(F)(F)F)ccc1C(=O)Nc1ccc(Cn2nc(C)c(CC(=O)O)c2C)cc1 [Example 1.11]
12 | 12.9 | Cc1ccc(C(=O)Nc2ccc(Cn3nc(C)c(CC(=O)O)c3C)cc2)c(C)c1 [Example 1.12]
13 | 4 | Cc1nn(Cc2ccc(NC(=O)/C=C/c3ccccc3)cc2)c(C)c1CC(=O)O [Example 1.13]
14 | 1.1 | Cc1nn(Cc2ccc(NC(=O)/C=C/c3ccc(Cl)cc3)cc2)c(C)c1CC(=O)O [Example 1.14]
15 | 0.2 | Cc1nn(Cc2ccc(NC(=O)c3ccc(C(C)(C)C)cc3)cc2)c(C)c1CC(=O)O [Example 1.15]
16 | 3.9 | Cc1cc(Br)ccc1C(=O)Nc1ccc(Cn2nc(C)c(CC(=O)O)c2C)cc1 [Example 1.16]
17 | 2.5 | Cc1cc(C(=O)Nc2ccc(Cn3nc(C)c(CC(=O)O)c3C)cc2)c(C)cc1Br [Example 1.17]
18 | 17.9 | Cc1nn(Cc2ccc(NC(=O)c3ccc(Cl)cc3Cl)cc2)c(C)c1CC(=O)O [Example 1.18]
19 | 16.2 | Cc1nn(Cc2ccc(NC(=O)c3ccc(Cl)cc3F)cc2)c(C)c1CC(=O)O [Example 1.19]
20 | 29.3 | Cc1ccc(C(=O)Nc2ccc(Cn3nc(C)c(CC(=O)O)c3C)cc2)c(F)c1 [Example 1.20]

Row | Ki [nM] | Structure (SMILES)
21 | 80.2 | Cc1ccc(C(=O)Nc2ccc(Cn3nc(C)c(CC(=O)O)c3C)cc2)c(C(F)(F)F)c1 [Example 1.21]
22 | 3320 | Cc1nn(Cc2ccc(NC(=O)c3ccc(C(F)(F)F)cc3F)cc2)c(C)c1CC(=O)O [Example 1.22]
23 | 5.7 | Cc1nn(Cc2ccc(NC(=O)c3cc4ccccc4cc3Cl)cc2)c(C)c1CC(=O)O [Example 1.23]
24 | 553 | Cc1cc(C)c(C(=O)Nc2ccc(Cn3nc(C)c(CC(=O)O)c3C)cc2)c(C)c1 [Example 1.24]
25 | 3.1 | Cc1cc2ccccc2cc1C(=O)Nc1ccc(Cn2nc(C)c(CC(=O)O)c2C)cc1 [Example 1.25]
26 | 36 | Cc1nn(Cc2ccc(NC(=O)c3ccc4ccccc4c3C)cc2)c(C)c1CC(=O)O [Example 1.26]
27 | 9.3 | Cc1nn(Cc2ccc(NC(=O)c3ccc(Br)cc3Cl)cc2)c(C)c1CC(=O)O [Example 1.27]
28 | 12.4 | Cc1nn(Cc2ccc(NC(=O)c3ccc(Cl)cc3Br)cc2)c(C)c1CC(=O)O [Example 1.28]
29 | 2.5 | Cc1nn(Cc2ccc(NC(=O)c3cccc4c3CCCC4)cc2)c(C)c1CC(=O)O [Example 1.29]
30 | 14.6 | Cc1nn(Cc2ccc(NC(=O)c3ccc4ccccc4c3Br)cc2)c(C)c1CC(=O)O [Example 1.30]
31 | 18.9 | Cc1ccc(Br)c(C(=O)Nc2ccc(Cn3nc(C)c(CC(=O)O)c3C)cc2)c1 [Example 1.31]
32 | 32.5 | Cc1nn(Cc2ccc(NC(=O)C(C)C)cc2)c(C)c1CC(=O)O [Example 1.32]
33 | 29.8 | Cc1nn(Cc2ccc(NC(=O)C3CCCCC3)cc2)c(C)c1CC(=O)O [Example 1.33]
34 | 4 | Cc1nn(Cc2ccc(NC(=O)C3[C@H]4C[C@@H]5C[C@@H](C[C@H]3C5)C4)cc2)c(C)c1CC(=O)O (stereo partly shown) [Example 1.34]
35 | 44.6 | Cc1nn(Cc2ccc(NC(=O)C3CCC3)cc2)c(C)c1CC(=O)O [Example 1.35]
36 | 0.2 | CCc1nn(Cc2ccc(NC(=O)c3ccc(C(F)(F)F)cc3)cc2)c(CC)c1CC(=O)O [Example 2.1]
37 | 1.1 | CCc1nn(Cc2ccc(NC(=O)c3ccc(Cl)cc3C)cc2)c(CC)c1CC(=O)O [Example 2.2]
38 | 3.4 | CCc1nn(Cc2ccc(NC(=O)c3ccccc3)cc2)c(CC)c1CC(=O)O [Example 2.3]
39 | 1.3 | CCc1nn(Cc2ccc(NC(=O)c3ccc(C)cc3)cc2)c(CC)c1CC(=O)O [Example 2.4]
40 | 0.75 | CCc1nn(Cc2ccc(NC(=O)c3ccc(Cl)cc3)cc2)c(CC)c1CC(=O)O [Example 2.5]

Row | Ki [nM] | Structure (SMILES)
41 | 0.25 | CCc1nn(Cc2ccc(NC(=O)c3ccc(Cl)c(Cl)c3)cc2)c(CC)c1CC(=O)O [Example 2.6]
42 | 12.9 | Cc1c(CC(=O)O)c(C2CCCCC2)nn1Cc1ccc(NC(=O)c2ccc(C(F)(F)F)cc2)cc1 [Example 2.7]
43 | 1.3 | Cc1nn(Cc2ccc(NC(=O)c3ccc4ccccc4c3)cc2)c(-c2ccccc2)c1CC(=O)O [Example 2.8]
44 | 1.8 | Cc1nn(Cc2ccc(NC(=O)c3ccc(C(F)(F)F)cc3)cc2)c(-c2ccccc2)c1CC(=O)O [Example 2.9]
45 | 0.8 | Cc1nn(Cc2ccc(NC(=O)c3ccc(Cl)c(Cl)c3)cc2)c(-c2ccccc2)c1CC(=O)O [Example 2.10]
46 | 1.2 | Cc1c(CC(=O)O)c(-c2ccccc2)nn1Cc1ccc(NC(=O)c2ccc(C(F)(F)F)cc2)cc1 [Example 2.11]
47 | 2.3 | Cc1c(CC(=O)O)c(-c2ccccc2)nn1Cc1ccc(NC(=O)c2ccc3ccccc3c2)cc1 [Example 2.12]
48 | 2.9 | Cc1c(CC(=O)O)c(-c2ccccc2)nn1Cc1ccc(NC(=O)c2ccc(Cl)c(Cl)c2)cc1 [Example 2.13]
49 | 0.2 | CCc1nn(Cc2ccc(NC(=O)c3ccc4ccccc4c3)cc2)c(CC)c1CC(=O)O [Example 2.14]
50 | 1.4 | CCc1nn(Cc2ccc(NC(=O)c3ccc(C)cc3C)cc2)c(CC)c1CC(=O)O [Example 2.15]
51 | 23.9 | CCc1nn(Cc2ccc(NC(=O)[C@H]3CC[C@@H](C(F)(F)F)CC3)cc2)c(CC)c1CC(=O)O [Example 2.16]
52 | 0.7 | CCc1nn(Cc2ccc(NC(=O)c3ccc(Br)cc3C)cc2)c(CC)c1CC(=O)O [Example 2.17]
53 | 2.8 | CCc1nn(Cc2ccc(NC(=O)C3CCCCC3)cc2)c(CC)c1CC(=O)O [Example 2.18]
54 | 5.8 | CCc1nn(Cc2ccc(NC(=O)c3cc(C)ccc3Br)cc2)c(CC)c1CC(=O)O [Example 2.19]
55 | 13.9 | CCc1nn(Cc2ccc(NC(=O)c3cccc(Cl)c3Cl)cc2)c(CC)c1CC(=O)O [Example 2.20]
56 | 0.5 | CCc1nn(Cc2ccc(NC(=O)c3cccc4c3CCCC4)cc2)c(CC)c1CC(=O)O [Example 2.21]
57 | 1.9 | CCc1nn(Cc2ccc(NC(=O)c3ccc(Br)cc3Cl)cc2)c(CC)c1CC(=O)O [Example 2.22]
58 | 6.1 | CCc1ccccc1C(=O)Nc1ccc(Cn2nc(CC)c(CC(=O)O)c2CC)cc1 [Example 2.23]
